Results on two compounds are retold here after US10376475B2, “Method of use” (Dermavant Sciences GmbH, priority 2014, dated 2019).

The term MIC denotes the lowest concentration found to suppress growth.

Data set [1] deals with primary human keratinocytes. Briefly: Keratinocyte viability (annexin V / propidium iodide flow cytometry). It counts as cell-based. As to conditions: 10 and 30 uM, 48 hours. How it is done: Keratinocyte hyperproliferation increases blockage and can promote comedome formation in acne. […] The ability of Compound 1 to induce apoptosis in primary keratinocytes may contribute to efficacy in acne patients.
Primary human keratinocytes were cultured in EpiLife medium containing HKGS growth supplement and seeded in tissue culture plates at 250,000 cells per plate. On the next day, the culture medium was removed and keratinocytes were then treated with culture medium containing vehicle control (DMSO) or increasing concentrations of Compound 1 (1, 10, 30 uM). After 48 hours of culture, keratinocytes were removed from tissue culture plates and cell viability was assessed by staining for apoptotic markers (annexin V and propidium iodide) using flow cytometry.
In general terms: A flow cytometer gives signals particle by particle.

For data set [2] the following is noted: mouse ear edema; cited from earlier work.
A further data set concerns IL-17. Briefly: IL-17 secretion by pre-existing (differentiated) Th17 polarized cells after TCR stimulus.
Data set [3] has as its system IL-17A. Nature of the data set: IL-17A protein secretion by peripheral blood CD4+ T cells cultured under Th17 polarizing conditions (Magpix). It counts as cell-based. As to conditions: 5 days of culture, titrating doses. How it is done:
To further understand the active dose range of compound 1-mediated suppression of Th17-associated cytokines, IL-17A protein secretion was examined in peripheral blood CD4+ T cells following 5 days of culture under Th17 polarizing conditions in the presence or absence of titrating doses of Compound 1 (FIG. 2). Supernatants were harvested at the end of the culture period and secreted protein was analyzed by Magpix (magnetic-based Luminex technology).

The test system of data set [4] is human immortalized sebocytes. Briefly: Sebocyte lipogenesis assay (14C-acetate). To be noted: 10, 3, 1, 0.3 and 0.1 μM. It counts as cell-based. How it is done:
Briefly, human immortalized sebocytes (tsSV40 and hTERT) were seeded and allowed to grow to confluence in Sebocyte Growth Medium. Upon confluence, cells were transferred to […] to initiate Large T antigen degradation. Two days later, cells were stimulated with Sebocyte Labeling Medium containing 1 μM T0901317 and vehicle (DMSO) or compound 1. […] Next day, the media was replaced with Sebocyte Labeling Medium containing 1 μM T0901317 and original treatments or vehicle plus 1 μM insulin. 2 ul of 14C-acetate was added per well and the plate incubated for 4 hours. After 2 hours of incubation, 10 ul of CTB reagent was added per well for normalization. Incubation was continued for the remaining 2 hours and plates were read at Ex. 560 Em.590 for CTB signal. Cells were then washed, trypsinized and transferred to glass vials for lipid extraction. The results are expressed as % lipid production relative to control (LXR+Insulin group).
FIG. 4, the data represent % inhibition relative to control (LXR+Insulin group). Data are represented as Mean±SEM. Data are from 3 replicates.

In a further data set the test system is primary human cell types. Briefly: BioMAP Diversity Plus System profile comparison. To be noted: 148 phenotypic readouts, at one or more test concentration.
In another data set the test system is P. acnes. Nature of the data set: MIC against P. acnes on supplemented Brucella blood agar (CLSI). It counts as cell-based, Propionibacterium acnes. How it is done:
Bacterial strains utilized to evaluate this concept of antibacterial synergy were the clinical isolates P. acnes 6601, 6602, AN24, 100372, and reference strain ATCC6919. These were received from the internal culture GSK collection held by the Infectious Disease CEDD at the Upper Providence site. Bacteria inocula were prepared, and the determination of the minimal inhibitory concentration (MIC) were conducted on supplemented Brucella blood agar as described for the CLSI guideline method (Bhate, K. et al. Brit. J. Derm. 168:474-485, 2013). Briefly, diluted antibacterials were added to tempered molten agar and aseptically poured into petri dishes and allowed to solidify. Following 24-hours incubation in an anaerobic environment bacterial colonies were suspended and adjusted for turbidity equivalent to a 0.5 MacFarland standard. One-two microliters of inoculums were placed on each antibiotic containing agar plate and allowed to absorb for 30 min. Plates were then inverted and incubated anaerobically for 48-72 hours before observation for growth. The lowest drug concentration which inhibited bacterial growth was designated as the MIC.

For data set [5], the system named is IL-17A. It counts as cell-based.

Structures are written as SMILES. Read-outs that look alike come from different tables or passages of the source.

For `CC(C)c1c(O)cc(/C=C/c2ccccc2)cc1O` [Compound 1], the “keratinocyte viability / cytotoxicity” value in data set [1] was “overtly cytotoxic”. Besides, the “skin redness and thickness” value in data set [2] is “dose dependent reduction in both skin redness and thickness”. Further, the “reduction of IL-17 levels relative to stimulus alone” value with IL-17 (30 μM, 24 hours) was 80-95%. Besides, the IL-17A protein levels entry with IL-17A [3] was “suppressed by compound 1 in a dose-dependent manner”. Also, the “lipogenesis relative to control (LXR+Insulin group)” value in data set [4] is listed as “not active”; in data set [4] (listed as compound 1), “trends towards increased lipogenesis”. Besides, in the data set with primary human cell types, the “number of biomarkers modulated” value is on record as “more than 25”. Besides, the MIC in the data set with P. acnes (Cutibacterium acnes, P. acnes reference strain ATCC6919, read-out: MIC) stood at 128 µg/mL; with P. acnes (Cutibacterium acnes, all P. acnes strains tested, read-out: MIC) it was 128 µg/mL; with P. acnes (P. acnes strain 6601) it was 128 µg/mL; in the data set on P. acnes (P. acnes strain 6602) it was 128 µg/mL; in the data set with P. acnes (P. acnes strain 100372), 128 µg/mL; with P. acnes (P. acnes strain AN24) it was 128 µg/mL. For the same compound, the “antibacterial activity against P. acnes” value with P. acnes (judgement based on MIC results) is listed as “would not be considered to be active”. Further, the “suppression of IL-17 secretion” value in the data set on IL-17A [5] (100 nM) is “more than 60%”. Further, the “reduction of IL-17” value in the data set on IL-17A [5] (10 μM) is “approximately 80%”. Also, the “IL-17A mRNA expression” value with IL-17A [5] (normalized to PPIB, 5-day culture) was “inhibited IL-17A mRNA expression in parallel and at the same potency as secretion of IL-17 protein”.
In the case of `Oc1ccc(C=Cc2cc(O)cc(O)c2)cc1` [Resveratrol], the entries for the “effect on IL-17” value in the data set on IL-17 (30 μM) and in the data set on IL-17 (lower concentrations (below 30 μM)) were “partial inhibition” and “enhancement”, respectively.
